Results from publication PMC10400593, “Molecular insights into Spindlin1-HBx interplay and its impact on HBV transcription from cccDNA minichromosome” (Nature Communications, 2023).
Values joined by “and” are separate entries in the source; they are usually repeats but may differ in a detail not shown here. Equal entries are not always repeated. “Also recorded” adds a separate entry of the source. Where two headings read alike, the source gives them in different places. Where no end group is shown, it is not given here.

Columns and labels:
[1] = biological target: T1, human Spindlin1_50–262 (Homo sapiens, UniProt Q9Y657); assay type: binding; design: Human Spindlin1_50–262 was cloned into pGEX-6P-1 vector containing an N-terminal GST tag; GST (N, cleaved yes); made in house; host or cells: E. coli BL21(DE3); conditions: 25 °C; for N: ITC stoichiometry, free wild-type Spindlin1_50–262; for N / K (association constant) / ΔH: mean ± SE; for ΔS / K (association constant) / ΔH: ITC, pH 7.5, free wild-type Spindlin1_50–262; for K (association constant): One Set of Binding Sites fit
Procedure: Cells were harvested and lysed in lysis buffer: 0.2 M NaCl, 20 mM Tris, pH 8.0 containing 1 mM fresh PMSF. After centrifugation, the GST-tagged Spindlin1_50–262 was purified by a GST affinity column and then the GST tag was cleaved on-column by a home-made P3C protease overnight. The tag-free protein was collected for an anion-exchange chromatography over a HiTrap Q HP column and Superdex G75 columns (GE Healthcare). The Spindlin1_50–262 protein was concentrated to 25 mg/ml in 0.15 M NaCl, 20 mM Tris, pH 8.0, aliquoted and stored at −80 °C for future use. All Spindlin1_50–262 mutants were generated by the QuikChange site-directed mutagenesis strategy and purified using the same procedure as described above.
(§1) Calorimetric experiments were conducted at 25 °C with a MicroCal PEAQ-ITC instrument (Malvern Instruments) as previously described. The Spindlin1_50–262 samples were extensively dialyzed against the buffer containing 20 mM HepesNa (pH 7.5) and 150 mM NaCl. Protein concentration was determined by absorbance spectroscopy at 280 nm. Peptide concentrations were determined by weighing in large quantities. Each ITC titration consisted of 17 successive injections with 0.4 μl for the first and 2.4 μl for the rest. The intervals between injections were 180 s, and the stirring speed was 750 rpm. […] Acquired calorimetric titration data were fitted at 95% confidence and analyzed using Origin 7.0 (GE Healthcare) using the One Set of Binding Sites fitting model. Data represent the mean ± SE. Detailed thermodynamic parameters of each titration are summarized in the Supplementary Table 2.

[2] = biological target: Spindlin1_50-262 & HBx2-21 (Homo sapiens, UniProt Q9Y657); conditions: ITC; for K (association constant): 25 °C, pH 7.5, mean ± SE; for N / ΔH: mean ± SE
Procedure: Cells were harvested and lysed in lysis buffer: 0.2 M NaCl, 20 mM Tris, pH 8.0 containing 1 mM fresh PMSF. […] The tag-free protein was collected for an anion-exchange chromatography over a HiTrap Q HP column and Superdex G75 columns (GE Healthcare).
as §1, with “Protein” for “Calorimetric experiments were conducted at 25 °C with a MicroCal PEAQ-ITC instrument (Malvern Instruments) as previously described. The Spindlin1_50–262 samples were extensively dialyzed against the buffer containing 20 mM HepesNa (pH 7.5) and 150 mM NaCl. Protein”

[3] = biological target: T1, human Spindlin1_50–262; test: ITC
[4] = test system: HBx; conditions: Huh7 cells, 48 h after co-transfection, WB
Procedure: (§2) Mutations in full-length Spindlin1 were generated by site-directed mutagenesis and confirmed by DNA sequencing. Plasmid DNA and siRNA transfections were performed using Lipofectamine 3000 reagent (Invitrogen) and Lipofectamine RNAiMAX (Invitrogen) according to the manufacturer’s protocol, respectively.

[5] = test system: HBeAg; conditions: ectopic expression in Spindlin1 knockdown cells
Procedure: as §2
For infections, cells were incubated with viral supernatants in the presence of 10 µg/ml polybrene.
For siRNA knockdown experiments of HepG2-NTCP cells, the siRNAs (sequences are listed in the Supplementary Table 4) were transfected at 3dpi, and incubated with cells for 24 h. Then the cells were maintained in PMM with 2% FBS with regular medium changing every other day. For cccDNA formation experiment, the siRNAs were transfected 48 h before infection and incubated with cells for 24 h. Then the cells were cultured with PMM medium for another […]. The cells were then infected with HBV at 800GEQ in the presence of 5% PEG8000 for 24 h at 37 °C.
HBeAg levels of HBV infected cells were measured using ELISA kits (Wantai Pharm Inc). Supernatants from HBV infected cells were harvested at each time point examined in the various assays and were diluted 4-fold with DMEM before ELISA.

[6] = test system: HBV RNA; test: Rescue of HBV transcription/expression in Spindlin1 knockdown HepG2-NTCP cells; assay type: cell-based; conditions: ectopic expression in Spindlin1 knockdown cells
Procedure: Cells were harvested with TRIzol™ Reagent (Invitrogen, Carlsbad, CA). The RNA was extracted and precipitated with equal volumes of isopropanol. The RNA pellet was washed with 75% ethanol and dissolved in DEPC-treated H2O. The RNA solution with 1xRNA loading buffer was incubated at 65 °C heat block for 5 min and put on ice for 5 min. Then the RNA sample was subjected to 1.2% agarose gel electrophoresis (with 1xMOPS buffer and 5% formaldehyde solution) and transferred onto Amersham Hybond-N+ membrane (GE Healthcare). After UV crosslinking, the RNA was detected with DIG-labeled full-length HBV genome and DIG-labeled GAPDH probe (DIG-high prime DNA-labeling and detection starter kit II, Roche, cat. No. 11585614910).

[7] = biological target: T2, Human Spindlin1 50-262 (human, UniProt Q9Y657 50-262); test: ITC; conditions: both partners purified
T2 construct: also called SPIN1; not shown: GST, N-terminal, cleaved

[8] = biological target: T2, Human Spindlin1 50-262; test: ITC; conditions: both partners purified; remark: listed apart in the source
[9] = biological target: T2, Human Spindlin1 50-262; test: ITC; conditions: both partners purified; remark: listed apart in the source
[10] = biological target: T2, Human Spindlin1 50-262; test: ITC; conditions: both partners purified; remark: listed apart in the source
[11] = listed as wild-type (WT) Spindlin1

Chain of Spindlin1_50-262 & HBx2-21 (Q9Y657 whole entry, looked up): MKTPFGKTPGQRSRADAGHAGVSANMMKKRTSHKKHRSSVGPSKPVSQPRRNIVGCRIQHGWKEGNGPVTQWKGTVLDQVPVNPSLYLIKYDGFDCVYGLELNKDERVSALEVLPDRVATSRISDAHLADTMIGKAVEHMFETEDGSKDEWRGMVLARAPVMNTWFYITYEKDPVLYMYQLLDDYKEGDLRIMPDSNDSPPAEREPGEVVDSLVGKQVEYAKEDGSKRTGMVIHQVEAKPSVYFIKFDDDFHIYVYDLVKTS
T1 sequence (Q9Y657 50-262): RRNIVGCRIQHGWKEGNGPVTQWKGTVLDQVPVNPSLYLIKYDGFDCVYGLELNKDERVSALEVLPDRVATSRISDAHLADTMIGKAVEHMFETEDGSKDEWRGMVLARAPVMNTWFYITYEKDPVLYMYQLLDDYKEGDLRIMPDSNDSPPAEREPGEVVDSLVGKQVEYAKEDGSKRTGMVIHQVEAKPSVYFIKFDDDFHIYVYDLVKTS
T2 sequence (Q9Y657 50-262): as above

Molecule: ARTK(m e3)QTAR(me2a)KSTGGKAPRKQL-NH2 [H31-20 K4me3R8me2a]
- N [1]: 1.0± 0.004
- ΔS [1]: -23.6 cal/mol/deg
- K (association constant) [1]: 3.2e+07 ± 5.15e+06 M⁻¹
- ΔH [1]: -17280± 115.8 kal/mol
- ΔS [2]: -22.0 cal/mol/deg
- K (association constant) [2]: 4.74e+07 ± 7.62e+06 M⁻¹
- N [2]: 1.0± 0.003
- ΔH [2]: -17040± 96.9 kal/mol

Molecule: Ac-CSFSSAGPCALRFTSARRME-NH2 [HBx61-80, HBx array peptide]
- ΔS [1]: -1.7 cal/mol/deg
- ΔH [1]: -6319± 252.7 kal/mol

Molecule: AARLCCQLDSSRDVLLLRPL-NH2 [GSHBx, ground squirrel HBx N-terminal motif peptide]
- ΔS [1]: 25.3 cal/mol/deg
- ΔH [1]: -987.3± 23.4 kal/mol

Molecule: Ac-PARDVLCLRPIGAESRGRPL-NH2 [HBx11-30]
- ΔS [1]: 8.2 cal/mol/deg
- ΔH [1]: -3496± 197.8 kal/mol

Molecule: ARTK(m e3)QTARK(me2)STGGKA-NH2 [H31-15 K4me3K9me2]
- N [1]: 1.0± 0.002
- ΔS [1]: -15.3 cal/mol/deg
- K (association constant) [1]: 4.18e+07 ± 4.82e+06 M⁻¹
- ΔH [1]: -14960± 61.22 kal/mol
- ΔS [2]: -12.1 cal/mol/deg
- K (association constant) [2]: 1.74e+08 ± 9.28e+07 M⁻¹
- N [2]: 1.0± 0.004
- ΔH [2]: -14860± 139.6 kal/mol

Molecule: HBx_(2–21) peptide (from UniProt Q69607) V15R
- Kd [3]: 14.4 µM

Molecule: AARLCCQLDPARDVLCLRPV-NH2 [HBx-D2-21, HBx-D N-terminal motif peptide]
- ΔS [1]: 18.0 cal/mol/deg
- ΔH [1]: -3096± 42.71 kal/mol

Molecule: AARLCCQLDSARDVLLLRPF-NH2 [WHx, woodchuck HBx N-terminal motif peptide]
- ΔS [1]: 9.96 cal/mol/deg
- ΔH [1]: -4600± 130.4 kal/mol

Molecule: HBx_(61–80) peptide
- fold weaker binding than HBx (2–21) [3]: 55 fold

Molecule: HBx_(11–30) peptide
- fold weaker binding than HBx (2–21) [3]: 44 fold

Molecule: K216S/V218R double mutant
- Interaction with HBx (Co-IP) [4]: disrupted Spindlin1-HBx engagement both in vitro and in cellular context
- Interaction with HBx (Co-IP) ([4]; listed as Spindlin1 K216S/V218R): significantly compromised
- Restoration of HBeAg levels [5]: not the K216S/V218R double mutant that effectively restored

Molecule: HBx2-21 V15R peptide
- stoichiometry N [3]: 1

Molecule: wild-type Spindlin1: ectopically expressed wild-type Spindlin1
- Restoration of HBV transcription/expression [6]: effectively restored the levels of HBV transcription and HBeAg; also recorded: restored HBV expression
- Restoration of HBV transcription/expression [6, 11]: restore the levels of HBV transcription and HBeAg
- Restoration of HBeAg levels [5]: effectively restored the levels of HBV transcription and HBeAg
- Restoration of HBeAg levels [5, 11]: restore the levels of HBV transcription and HBeAg

Molecule: Ac-GKGGAKRHRK (me3)VLRDNIQGIT-NH2 [H411-30 K20me3]
- N [1]: 1.0± 0.016
- ΔS [1]: -12.3 cal/mol/deg
- ΔH [1]: -12920± 254.2 kal/mol
- N [2]: 0.9± 0.010 and 1.0± 0.001

Molecule: W72R
- Restoration of HBV transcription/expression [6]: not its H3K4me3 and H3K9me3-binding deficient mutants

Molecule: HBx_(2–21) peptide (from UniProt Q69607) L18R
- Kd [3]: 35.8 µM

B1: HBx61-80 peptide (peptide)
peptide: Ac-CSFSSAGPCALRFTSARRME-NH2
modifications: cysteine pairing not given here
notes: source: synthetic peptide, bought: Scilight Biotechnology LLC
- Ka [7]: 18200 M⁻¹
- stoichiometry N [7]: 1
- Kd [8]: 55.5 µM

B2: H3 1-15 K4me3K9me2 peptide (peptide)
peptide: ARTK(me3)QTARK(me2)STGGKA
notes: also called H3K4me3K9me2; source: synthetic peptide, bought: Scilight Biotechnology LLC
- Kd [9]: 0.0242 µM
- Ka [7]: 4.18e+07 M⁻¹

B3: WHx2-21 peptide (woodchuck HBx) (peptide)
peptide: AARLCCQLDSARDVLLLRPF-NH2
modifications: cysteine pairing not given here
notes: also called FWHx; source: synthetic peptide, bought: Scilight Biotechnology LLC
- Kd [10]: 2.9 µM
- Ka [7]: 354000 M⁻¹
- stoichiometry N [7]: 0.9

B4: GSHBx2-21 peptide (ground squirrel HBx) (peptide)
peptide: AARLCCQLDSSRDVLLLRPL-NH2
modifications: cysteine pairing not given here
notes: as for B1
- Kd [10]: 0.62 µM
- Ka [7]: 1.83e+06 M⁻¹
- stoichiometry N [7]: 1.1

B5: HBx-D2-21 peptide (peptide)
peptide: AARLCCQLDPARDVLCLRPV-NH2
modifications: cysteine pairing not given here
notes: as for B1
- Kd [10]: 0.7 µM
- Ka [7]: 1.56e+06 M⁻¹
- stoichiometry N [7]: 0.951

B6: HBx11-30 peptide (peptide)
peptide: Ac-PARDVLCLRPIGAESRGRPL-NH2
notes: as for B1
- Ka [7]: 22600 M⁻¹
- stoichiometry N [7]: 1.2
- Kd [8]: 45.9 µM
